Source: US12371421B2, “Solid forms of a PARP7 inhibitor” (Ribon Therapeutics, Inc., priority 2019, dated 2025)
≈ marks a conversion by molar mass, not a printed value.

Test: Approximate solubility of Form A in solvents at room temperature
Assay type: physicochemical
Protocol: The approximate solubility of Form A was estimated in 27 solvents or co-solvents at room temperature. Approximately 2 mg of solids were weighed into each 3 mL glass vial, to which each of the solvents was added in stepwise until the solids dissolved completely or the total volume reaches 2.0 mL. Solubility ranges were used to guide the solvent selection for polymorph screening described in later examples.

## C[C@@H](COCCC(=O)N1CCN(c2ncc(C(F)(F)F)cn2)CC1)Nc1cn[nH]c(=O)c1C(F)(F)F [Form A, 5-[[(2S)-1-(3-oxo-3-[4-[5-(trifluoromethyl)pyrimidin-2-yl]piperazin-1-yl]propoxy)propan-2-yl]amino]-4-(trifluoromethyl)-2,3-dihydropyridazin-3-one]
Organic solvent or mixture, thermodynamic from solid, 1,4-Dioxane
  solubility: 5000 to 10000 µg/mL (≈ 9.55 to 19.1 mM)
Organic solvent or mixture, thermodynamic from solid, 2-MeTHF
  solubility: < 1000 µg/mL
Organic solvent or mixture, thermodynamic from solid, ACN
  solubility: 11000 to 22000 µg/mL (≈ 21 to 42 mM)
Organic solvent or mixture, thermodynamic from solid, ACN/MIBK (1:9) v:v
  solubility: 2000 to 5000 µg/mL (≈ 3.82 to 9.55 mM)
Organic solvent or mixture, thermodynamic from solid, ACN/MTBE (1:9) v:v
  solubility: 1200 to 2400 µg/mL (≈ 2.29 to 4.59 mM)
Organic solvent or mixture, thermodynamic from solid, ACN/THF (1:4) v:v
  solubility: 5000 to 10000 µg/mL (≈ 9.55 to 19.1 mM)
Organic solvent or mixture, thermodynamic from solid, ACN/THF (1:9) v:v
  solubility: 10000 to 20000 µg/mL (≈ 19.1 to 38.2 mM)
Organic solvent or mixture, thermodynamic from solid, Acetone
  solubility: > 40000 µg/mL
Organic solvent or mixture, thermodynamic from solid, Acetone/n-Heptane (1:4) v:v
  solubility: < 1300 µg/mL
Organic solvent or mixture, thermodynamic from solid, Acetone/n-Heptane (1:9) v:v
  solubility: < 1000 µg/mL
Organic solvent or mixture, thermodynamic from solid, CHCl3
  solubility: 22000 to 44000 µg/mL (≈ 42 to 84.1 mM)
Organic solvent or mixture, thermodynamic from solid, DCM
  solubility: 19000 to 38000 µg/mL (≈ 36.3 to 72.6 mM)
Organic solvent or mixture, thermodynamic from solid, DCM/MTBE (1:9) v:v
  solubility: < 1200 µg/mL
Organic solvent or mixture, thermodynamic from solid, DMAc
  solubility: 22000 to 44000 µg/mL (≈ 42 to 84.1 mM)
Organic solvent or mixture, thermodynamic from solid, DMSO
  solubility: > 42000 µg/mL
Organic solvent or mixture, thermodynamic from solid, EtOAc
  solubility: 1900 to 4800 µg/mL (≈ 3.63 to 9.17 mM)
Organic solvent or mixture, thermodynamic from solid, EtOH
  solubility: < 1100 µg/mL
Organic solvent or mixture, thermodynamic from solid, IPA
  solubility: < 1100 µg/mL
Organic solvent or mixture, thermodynamic from solid, IPAc
  solubility: < 1100 µg/mL
Organic solvent or mixture, thermodynamic from solid, MIBK
  solubility: < 1000 µg/mL
Organic solvent or mixture, thermodynamic from solid, MTBE
  solubility: < 1000 µg/mL
Organic solvent or mixture, thermodynamic from solid, MeOH
  solubility: < 1100 µg/mL
Organic solvent or mixture, thermodynamic from solid, NMP
  solubility: > 38000 µg/mL
Organic solvent or mixture, thermodynamic from solid, THF
  solubility: < 1100 µg/mL
Organic solvent or mixture, thermodynamic from solid, Toluene
  solubility: < 1000 µg/mL
Organic solvent or mixture, thermodynamic from solid, n-Heptane
  solubility: < 1000 µg/mL
water, thermodynamic from solid, H2O
  solubility: < 1100 µg/mL
